Measurements reported in patent US20050107400A1, “Use of pyrazolopyridines as therapeutic compounds” (priority 2001, published 2005).
pIC50: −log10 of the molar value.

These molecules were tested on HSV-1 (assay: HSV-1 replication in infected Vero 76 cells, DNA hybridization capture assay). Conditions: Human alphaherpesvirus 1, Vero 76.
Format: cell-based, herpes simplex virus 1
Method: a) Tissue Culture and HSV Infection.
Vero 76 cells were maintained in MEM with Earle's salts, L-glutamine, 8% FBS (Hyclone, A-1111-L) and 100 units/mL Penicillin-100 μg/mL Streptomycin. For assay conditions, FBS was reduced to 2%. Cells are seeded into 96-well tissue culture plates at a density of 5×10^4 cells/well after being incubated for 45 min at 37° C. in the presence of HSV-1 or HSV-2 (MOI=0.001). Test compounds are added to the wells and the plates are incubated at 37° C. for 40-48 hours. Cell lysates are prepared as follows: media was removed and replaced with 150 μL/well 0.2 N NaOH with 1% Igepal CA 630 or NP-40. Plates were incubated up to 14 days at room temperature in a humidified chamber to prevent evaporation.
(b) Preparation of Detection DNA.
For the detection probe, a gel-purified, digoxigenin-labeled, […] PCR fragment of the HSV UL-15 sequence was utilized. PCR conditions included 0.5 μM primers, 180 μM dTTP, 20 μM dUTP-digoxigenin (Boehringer Mannheim 1558706), 200 μM each of dATP, dCTP, and dGTP, 1×PCR Buffer II (Perkin Elmer), 2.5 mM MgCl2, 0.025 units/μL of AmpliTaq Gold polymerase (Perkin Elmer), and 5 ng of gel-purified HSV DNA per 100 μL Extension conditions were 10 min at 95° C., followed by 30 cycles of 95° C. for 1 min, 55° C. for 30 sec, and 72° C. for 2 min. The amplification was completed with a 10-min incubation at 72° C. Primers were selected to amplify a 728 bp probe spanning a section of the HSV1 UL15 open reading frame (nucleotides 249-977). Single-stranded transcripts were purified with Promega M13 Wizard kits. The final product was mixed 1:1 with a mixture of 6 M GuSCN, 100 mM EDTA and 200 μg/mL herring sperm DNA and stored at 4° C.
(c) Preparation of Capture Plates.
The capture DNA plasmid (HSV UL13 region in pUC) was linearized by cutting with Xba I, denatured for 15 min at 95° C. and diluted immediately into Reacti-Bind DNA Coating Solution (Pierce, 17250, diluted 1:1 with TE buffer, pH 8) at 1 ng/μL. 75 μL/well were added to Corning (#3922 or 9690) white 96-well plates and incubated at room temperature for at least 4 hrs before washing twice with 300 μL/well 0.2×SSC/0.05% Tween-20 (SSC/T buffer). The plates were then incubated overnight at room temperature with 150 μL/well 0.2 N NaOH, 1% IGEPAL and 10 μg/mL herring sperm DNA.
Twenty-seven (27) μL of cell lysate was combined with 45 μL of hybridization solution (final concentration: 3M GuSCN, 50 mM EDTA, 100 μg/ml salmon sperm DNA, 5×Denhardt's solution, 0.25×APE, and 5 ng of the digoxigenin-labeled detection probe). APE is 1.5 M NH4-acetate, 0.15 M NH4H2 phosphate, and 5 mM EDTA adjusted to pH 6.0. Mineral oil (50 μL) was added to prevent evaporation. The hybridization plates were incubated at 95° C. for 10 minutes to denature the DNA, then incubated at 42° C. overnight. The wells were washed 6× with 300 μL/well SSC/T buffer then incubated with 75 μL/well anti-digoxigenin-HRP-conjugated antibody (Boehringer Mannheim 1207733, 1:5000 in TE) for 30 min at room temperature. The wells were washed 6× with 300 μL/well with PBS/0.05% Tween-20 before 75 μL/well SuperSignal LBA substrate (Pierce) was added. The plates were incubated at room temperature for 30 minutes and chemiluminescence was measured in a Wallac Victor reader.
The following results were obtained for HSV-1.

SMILES	pIC50
CN1CCN(CCCNc2nccc(-c3c(-c4ccc(F)cc4)nn4cc(C(F)(F)F)ccc34)n2)CC1 [Example 32, N-{4-[2-(4-fluorophenyl)-6-(trifluoromethyl)pyrazolo-[1,5-a]pyridin-3-yl]pyrimidin-2-yl}-N-[3-(4-methylpiperazin-1-yl)propyl]amine]	5.00

Same assay, conditions: Human alphaherpesvirus 1; HSV-1 in Vero 76 cells, MOI=0.001, 40-48 hours at 37° C.; read-out: IC50

SMILES	pIC50
Fc1ccc(-c2nn3ccc(Cl)cc3c2-c2ccnc(NC3CCCC3)n2)cc1 [Example 36, 4-[5-Chloro-2-(4-fluorophenyl)pyrazolo[1,5-a]pyridin-3-yl]-N-cyclopentyl-2-pyrimidinamine]	5.30
COc1ccc(-c2nn3ccc(Cl)cc3c2-c2ccnc(NC3CCCC3)n2)cc1 [Example 38, 4-[5-Chloro-2-(4-methoxyphenyl)pyrazolo[1,5-a]pyridin-3-yl]-N-cyclopentyl-2-pyrimidinamine]	5.42
O=C1CCCN1CCCNc1cc(-c2c(-c3ccc(F)cc3)nn3ccccc23)ccn1 [Example 39, 1-[3-({4-[2-(4-fluorophenyl)-pyrazolo[1,5-a]pyridin-3-yl]-2-pyridinyl}amino)propyl]-2-pyrrolidinone]	5.77
CN(C)c1cc(-c2c(-c3ccc(F)cc3)nn3cccc(F)c23)ccn1 [Example 41, 4-[4-Fluoro-2-(4-fluorophenyl)-pyrazolo[1,5-a]pyridin-3-yl]-N,N-dimethyl-2-pyridinamine]	4.67
CN(C)C(=O)c1ccc2c(-c3ccnc(NC4CC4)n3)c(-c3ccc(F)cc3)nn2c1 [Example 47, 3-[2-(Cyclopropylamino)-4-pyrimidinyl]-2-(4-fluorophenyl)-N,N-dimethylpyrazolo[1,5-a]pyridine-6-carboxamide]	6.00
O=C(NC1CC1)c1ccc2c(-c3ccnc(NC4CC4)n3)c(-c3ccc(F)cc3)nn2c1 [Example 48, N-Cyclopropyl-3-[2-(cyclopropylamino)-4-pyrimidinyl]-2-(4-fluorophenyl)pyrazolo[1,5-a]pyridine-6-carboxamide]	6.05
CCCCNc1nccc(-c2c(-c3ccc(F)cc3)nn3c(OCCF)cccc23)n1 [Example 57, N-Butyl-4-[7-(2-fluoroethoxy)-2-(4-fluorophenyl)pyrazolo[1,5-a]pyridin-3-yl]-2-pyrimidinamine]	5.60
CCCCNc1nccc(-c2c(-c3ccc(F)cc3)nn3c(OCC(F)(F)F)cccc23)n1 [Example 60, N-Butyl-4-[2-(4-fluorophenyl)-7-(2,2,2-trifluoroethoxy)pyrazolo[1,5-a]pyridin-3-yl]-2-pyrimidinamine]	5.30
Fc1ccc(-c2nn3c(OCC(F)(F)F)cccc3c2-c2ccnc(NC3CCCCC3)n2)cc1 [Example 64, N-Cyclohexyl-4-[2-(4-fluorophenyl)-7-(2,2,2-trifluoroethoxy)pyrazolo[1,5-a]pyridin-3-yl]-2-pyrimidinamine]	6.05
Cc1c(C(=O)NC2CC2)ccc2c(-c3ccnc(NC4CCCC4)n3)c(-c3ccc(F)cc3)nn12 [Example 83, 3-[2-(Cyclopentylamino)-4-pyrimidinyl]-N-cyclopropyl-2-(4-fluorophenyl)-7-methylpyrazolo[1,5-a]pyridine-6-carboxamide]	6.00
CCCCNc1nccc(-c2c(-c3ccc(F)cc3)nn3c(C)cccc23)n1 [Example 85, N-Butyl-4-[2-(4-fluorophenyl)-7-methylpyrazolo[1,5-a]pyridin-3-yl]-2-pyrimidinamine]	6.00

Next, values leading:

pIC50	SMILES
4.60	COc1nccc(-c2c(-c3ccc(F)cc3)nn3c(OCC(F)(F)F)cccc23)n1 [Example 66, 2-(4-Fluorophenyl)-3-(4-(2-methyloxy)pyrimidinyl)-7-(2,2,2-trifluoroethoxy)pyrazolo[1,5-a]pyridine]
4.82	Fc1ccc(-c2nn3c(OCC(F)(F)F)cccc3c2-c2ccnc(Oc3ccccc3)n2)cc1 [Example 67, 2-(4-Fluorophenyl)-3-(4-(2-phenyloxy)pyrimidinyl)-7-(2,2,2-trifluoroethoxy)pyrazolo[1,5-a]pyridine]
4.82	Fc1ccc(-c2nn3c(OCC(F)(F)F)cccc3c2-c2ccnc(OCC(F)(F)F)n2)cc1 [Example 68, 2-(4-Fluorophenyl)-3-(4-(2-(2,2,2-trifluoroethoxy))pyrimidinyl)-7-(2,2,2-trifluoroethoxy)pyrazolo[1,5-a]pyridine]
5.00	CSc1nccc(-c2c(-c3ccc(F)cc3)nn3c(OCC(F)(F)F)cccc23)n1 [Example 59, 2-(4-Fluorophenyl)-3-(4-(2-methylthio)pyrimidinyl)-7-(2,2,2-trifluoroethoxy)pyrazolo[1,5-a]pyridine]
5.20	OCCCNc1cc(-c2c(-c3ccc(F)cc3)nn3ccccc23)c(Br)cn1 [Example 44, 3-({5-Bromo-4-[2-(4-fluorophenyl)-pyrazolo[1,5-a]pyridin-3-yl]-2-pyridinyl}amino)-1-propanol]
5.28	CNc1cc(-c2c(-c3ccc(F)cc3)nn3ccccc23)cc(F)n1 [Example 40, 6-Fluoro-4-[2-(4-fluorophenyl)-pyrazolo[1,5-a]pyridin-3-yl]-N-methyl-2-pyridinamine]
5.30	C=CCNc1cc(-c2c(-c3ccc(F)cc3)nn3ccccc23)ccn1 [Example 42, N-Allyl-4-[2-(4-fluorophenyl)pyrazolo-[1,5-a]pyridin-3-yl]-2-pyridinamine]
5.35	Fc1ccc(-c2nn3cc(CNC4CCCC4)ccc3c2-c2ccnc(NC3CCCC3)n2)cc1 [Example 35, N-Cyclopentyl-4-[6-[(cyclopentylamino)methyl]-2-(4-fluorophenyl)-pyrazolo[1,5-a]pyridin-3-yl]-2-pyrimidinamine]
5.54	Fc1ccc(-c2nn3ccccc3c2-c2cc(-c3ccccc3)nc(NC3CCCC3)n2)cc1 [Example 49, N-Cyclopentyl-4-[2-(4-fluorophenyl)pyrazolo[1,5-a]pyridin-3-yl]-6-phenyl-2-pyrimidinamine]
5.59	COC(=O)c1ccc2c(-c3ccnc(NCCCOC(C)=O)c3)c(-c3ccc(F)cc3)nn2c1 [Example 45, Methyl 3-(2-{[3-(acetyloxy)propyl]-amino}-4-pyridinyl)-2-(4-fluorophenyl)pyrazolo[1,5-a]pyridine-6-carboxylate]
5.62	Fc1ccc(-c2nn3cc(Cl)ccc3c2-c2ccc(NC3CC3)nc2)cc1 [Example 43, 5-[6-Chloro-2-(4-fluorophenyl)-pyrazolo[1,5-a]pyridin-3-yl]-N-cyclopropyl-2-pyridinamine]
5.70	Cc1ccc2c(-c3ccnc(NC4CCCC4)n3)c(-c3ccc(F)cc3)nn2c1 [Example 34, N-Cyclopentyl-4-[2-(4-fluorophenyl)-6-methylpyrazolo[1,5-a]pyridin-3-yl]-2-pyrimidinamine]
5.70	Fc1ccc(-c2nn3c(OCC(F)(F)F)cccc3c2-c2ccnc(NC3CC3)n2)cc1 [Example 62, N-Cyclopropyl-4-[2-(4-fluorophenyl)-7-(2,2,2-trifluoroethoxy)pyrazolo [1,5-a]pyridin-3-yl]-2-pyrimidinamine]
5.77	CCCCNc1nccc(-c2c(-c3ccc(F)cc3)nn3cc(C(F)(F)F)ccc23)n1 [Example 31, N-Butyl-4-[2-(4-fluorophenyl)-6-trifluoromethylpyrazolo-[1,5-a]pyridin-3-yl]-2-pyrimidinamine]
5.85	Fc1ccc(-c2nn3ccc(N4CCCC4)cc3c2-c2ccnc(NC3CCCC3)n2)cc1 [Example 37, N-Cyclopentyl-4-[2-(4-fluorophenyl)-5-(1-pyrrolidinyl)pyrazolo[1,5-a]pyridin-3-yl]-2-pyrimidinamine]
6.22	CCCCNc1nccc(-c2c(-c3ccc(F)cc3)nn3c(CCCC)cccc23)n1 [Example 84, N-Butyl-4-[7-butyl-2-(4-fluorophenyl)pyrazolo[1,5-a]pyridin-3-yl]-2-pyrimidinamine]
